Experimental data as given in patent US20020137733A1, “Macrocyclic anti-viral compounds” (priority 2000, published 2002).
Values after ≈ are worked out from the molar mass of the structure shown. Read-outs that look alike come from different tables or passages of the source.

How the values were obtained:
[1] = test system: HSV-1 Tk−; experiment: Anti-HSV CPE assay, HSV-1 Tk- (thymidine kinase deficient); type: cell-based, herpes simplex virus type 1
Protocol: (§1) Human embryonic lung fibroblast (HEL) cells and Vero cells were propagated in minimal essential medium (MEM) supplemented with 10% fetal calf serum, L-glutamine, and bicarbonate. A CPE assay was used, confluent cultures of HEL or Vero cells grown in 96-well microtiter plates were inoculated with 100 times the 50% cell culture infective dose of the different HSV strains (HSV-1 KOS; HSV-1 Tk−, which is deficient for thymidine kinase; and HSV-2 G). Compounds were added after a 2 hours virus adsorption period. After 2 to 3 days incubation at 37 C. in 5% CO2 atmosphere, cells were fixed with ethanol and stained with 2.5% Giemsa solution. Virus-induced cytopathic effect (CPE) was then recorded microscopically. […] IC50 values were estimated from graphic plots of the number of plaques (percentage of control) or percentage of cytopathocity as a function of the concentration of the test compounds. Control compounds ganciclovir (GCV) and cidofovir ([(S)-1-(3-hydroxy-2-phosphonylmethoxypropyl)cytosine], HPMPC) were run in parallel.

[2] = test system: HSV-2 G; experiment: Anti-HSV CPE assay, HSV-2 G; type: cell-based, herpes simplex virus type 2
Protocol: as §1

[3] = test system: VZV YS strain; experiment: Anti-VZV plaque assay, YS strain (Tk+); type: cell-based, varicella zoster virus; conditions: read-out: ANTI-VZV ACTIVITY EC50 Plaque assay VZV Tk+ YS strain
Protocol: (§2) Human embryonic lung fibroblast (HEL) cells were grown in 96-well plates at the confluent stage and then were infected with reference strains VZV expressing viral thymidine kinase (YS and Oka) or lacking the viral thymidine kinase (07-1 and YS-R) at 20 plaque-forming units (PFU) for plaque assay. After a 2 hours incubation, residual virus was removed and the infected cells were further incubated with Eagle's MEM culture medium supplemented with 2% inactivated FCS (fetal calf serum), 1% L-glutamine and 0.3% sodium bicarbonate containing dilution of the test compounds (in duplicate) After 5 days incubation at 37 C. in 5% CO2 atmosphere, cells were fixed with ethanol and stained with 2.5% Giemsa solution. Virus plaque formation was monitored microscopically. […] IC50 values were estimated from graphic plots of the number of plaques (percentage of control) as a function of the concentration of the test compounds.

[4] = test system: Vero cells; experiment: Cytotoxicity, alteration of cell morphology (MTC), Vero cells; type: cell-based; conditions: Table 1
Description: (§3) Method 10. Cytotoxicity Measurements Based on Alteration of Cell Morphology
(§4) Minimum toxic concentration which is expressed as MTC, is the minimum concentration of compound required to cause microscopically detectable alteration in normal cell morphology.
(§5) MTC: Minimal toxic concentration or minimal concentration required to alter normal cell morphology (Visual examination)

[5] = test system: HSV-1 KOS; experiment: Anti-HSV CPE assay, HSV-1 KOS; type: cell-based, herpes simplex virus type 1
Protocol: as §1

[6] = test system: VZV 07/1 strain; experiment: microbe, parasite or virus in culture; type: cell-based, varicella zoster virus; conditions: Human alphaherpesvirus 3, HEL, read-out: ANTI-VZV ACTIVITY EC50 Plaque assay VZV Tk− 07/1 strain
Protocol: as §2

[7] = test system: VZV OKA strain; experiment: microbe, parasite or virus in culture; type: cell-based, varicella zoster virus; conditions: Human alphaherpesvirus 3, HEL, read-out: ANTI-VZV ACTIVITY EC50 Plaque assay VZV Tk+ OKA strain
Protocol: as §2

[8] = test system: VZV YS/R strain; experiment: microbe, parasite or virus in culture; type: cell-based, varicella zoster virus; conditions: Human alphaherpesvirus 3, HEL, read-out: ANTI-VZV ACTIVITY EC50 Plaque assay VZV Tk− YS/R strain
Protocol: as §2

[9] = test system: HEL cells; experiment: Cytotoxicity, alteration of cell morphology (MTC), HEL cells; conditions: for CYTOTOXICITY MTC HEL: Table 1 (anti-HSV study)
Description: as §3, §4, §5

[10] = test system: EBV; experiment: Anti-EBV assay, EBV-specific DNA/DNA hybridization in P3HR-1 cells; type: cell-based, Epstein-Barr virus; conditions: read-out: ANTI-EBV ACTIVITY EC50 DNA hybridiation assay
Protocol: To determine the effects of the compounds on EBV replication, exponentially growing P3HR-1 cells were treated for 14 days with various concentrations of the compounds. The cells were then harvested, and the genome copy numbers were determined using EBV-specific DNA/DNA hybridization technique. […] Control compound cidofovir ([(S)-1-(3-hydroxy-2-phosphonylmethoxypropyl)cytosine], HPMPC) was run in parallel.

[11] = Cytotoxicity, inhibition of cell growth (CC50), HEL cells; type: cell-based; conditions: human, Coulter counter
Protocol: (§6) Method 9. Cytotoxicity Measurements Based on the Inhibition of Cell Growth
(§7) Cells were seeded at a rate of 5×10^3 cells/well in 96-well plates and allowed to proliferate 24 hours. Different concentrations of the test compounds were then added (in duplicates), and after 3 days of incubation at 37 C. in 5% CO2 atmosphere, the cell number was determined with a coulter counter.

[12] = in vitro; type: cell-based; conditions: human
Description: Method 11. Cytotoxicity Measurements Based on Reduction of Total Cellular DNA Content Expressed as CC50*

[13] = Cytotoxicity, inhibition of cell growth (CC50), P3HR cells; type: cell-based; conditions: human, Coulter counter
Protocol: as §6, §7

[14] = test system: HCMV Davis; experiment: Anti-HCMV plaque assay; type: cell-based, cytomegalovirus; conditions: for EC50: Human betaherpesvirus 5, HEL
Protocol: (§8) Method 4. Anti-HCMV Assay
(§9) Human embryonic lung fibroblast cells (HEL) were grown in 96-well plates at the confluent stage and then were infected with reference strains of HCMV Davis at 8, 20, 38 plaque-forming units (PFU)/well for plaque assay or at 100 PFU/well for cytopathic effect (CPE) assay. After a 2 hours incubation, residual virus was removed and the infected cells were further incubated with Eagle's MEM culture medium supplemented with 2% inactivated FCS (fetal calf serum), 1% L-glutamine and 0.3% sodium bicarbonate containing dilution of the test compounds (in duplicate). After 7 days incubation at 37 C. in 5% CO2 atmosphere, cells were fixed with ethanol and stained with 2.5% Giemsa solution. Virus plaque formation or viral cytopathic effect were monitored microscopically. […] IC50 values were estimated from graphic plots of the number of plaques (percentage of control) or percentage of cytopathocity as a function of the concentration of the test compounds. Control compounds ganciclovir (GCV) and cidofovir ([(S)-1-(3-hydroxy-2-phosphonylmethoxypropyl)cytosine], HPMPC) were run in parallel.

[15] = test system: HCMV Davis; experiment: Anti-HCMV CPE assay; type: cell-based, cytomegalovirus; conditions: HEL cells, 100 PFU/well; for EC50: Human betaherpesvirus 5, HEL, read-out: ANTI-HCMV ACTIVITY EC50 HCMV-Davis CPE 100/well (96 well)
Protocol: as §8, §9

[16] = Human alphaherpesvirus 1, Vero, read-out: ANTI-HSV ACTIVITY EC50 CPE assay HSV-1Tk- Vero, Vero cells
[17] = Human alphaherpesvirus 2, Vero, Vero cells, read-out: ANTI-HSV ACTIVITY EC50 CPE assay HSV-2-G Vero
[18] = Human alphaherpesvirus 1, Vero cells, read-out: ANTI-HSV ACTIVITY EC50 CPE assay HSV-1-KOS Vero
[19] = Human alphaherpesvirus 1, HEL, read-out: ANTI-HSV ACTIVITY EC50 CPE assay HSV-1Tk- HEL, HEL cells
[20] = Human alphaherpesvirus 1, HEL cells, read-out: ANTI-HSV ACTIVITY EC50 CPE assay HSV-1-KOS HEL
[21] = HEL cells, 8 PFU/well, read-out: ANTI-HCMV ACTIVITY EC50 HCMV-Davis Plaque assay 8/well
[22] = HEL cells, 38 PFU/well, read-out: ANTI-HCMV ACTIVITY EC50 HCMV-Davis Plaque assay 38/well

`Nc1nc2c(ncn2COCCO)c(=O)[nH]1` [ACV, acyclovir] gave an EC50 [1, 16] of 33 µg/mL (≈ 147 µM), an EC50 [2, 17] of 1.3 µg/mL (≈ 5.77 µM) and an EC50 ([3]; Human alphaherpesvirus 3, HEL cells, 20 PFU) of 0.69 µg/mL (≈ 3.06 µM). The “CYTOTOXICITY MTC Vero” value [4] was >10 µg/mL and the EC50 [5, 18] was 2.4 µg/mL (≈ 10.7 µM).
Compound `O=c1[nH]c(=O)n([C@H]2C[C@H](O)[C@@H](CO)O2)cc1/C=C/Br` [BVDU, (E)-5-(2-bromovinyl)-2′-deoxyuridine] has an EC50 [6] of 4 µg/mL (≈ 12 µM), an EC50 [7] of 0.0013 µg/mL (≈ 0.0039 µM) and an EC50 [8] of 39 µg/mL (≈ 117 µM). The “CYTOTOXICITY HEL cells MTC” value ([9]; Table 3 (anti-VZV study)) was >50 µg/mL and the EC50 ([3]; Human alphaherpesvirus 3, HEL) was 0.0013 µg/mL (≈ 0.0039 µM).
For `O=C1NCc2ccccc2OCC/C=C/c2cncc3ccc1nc23` [Compound #1], the EC50 [6] was 0.06 µg/mL (≈ 0.181 µM), the EC50 [7] was 0.06 µg/mL (≈ 0.181 µM) and the EC50 [8] was 0.05 µg/mL (≈ 0.151 µM). For the same compound, the “CYTOTOXICITY MTC HEL” value [9] was 6 µg/mL, the “CYTOTOXICITY HEL cells MTC” value ([9]; Table 3 (anti-VZV study)) was >2 µg/mL and the EC50 [1, 19] was 0.062 µg/mL (≈ 0.187 µM). The EC50 [1, 16] was 1.1 µg/mL (≈ 3.32 µM), the EC50 ([10]; human gammaherpesvirus 4, P3HR-1, 336 h) was < 0.2 µg/mL and the EC50 ([2]; Human alphaherpesvirus 2, HEL, read-out: ANTI-HSV ACTIVITY EC50 CPE assay HSV-2-G HEL) was 0.138 µg/mL (≈ 0.416 µM). The EC50 ([2]; Human alphaherpesvirus 2, Vero, read-out: ANTI-HSV ACTIVITY EC50 CPE assay HSV-2-G Vero) was 0.009 µg/mL (≈ 0.0272 µM), the CC50 at 3 days [11] was 0.1 µg/mL (≈ 0.302 µM) and the EC50 ([3]; Human alphaherpesvirus 3, HEL) was 0.05 µg/mL (≈ 0.151 µM). For the same compound, the CC50 [12] was 2.6 µg/mL (≈ 7.85 µM), the “CYTOTOXICITY MTC Vero” value [4] was 25 µg/mL and the EC50 ([5]; Human alphaherpesvirus 1, HEL, read-out: ANTI-HSV ACTIVITY EC50 CPE assay HSV-1-KOS HEL) was 0.098 µg/mL (≈ 0.296 µM). The EC50 ([5]; Human alphaherpesvirus 1, Vero, read-out: ANTI-HSV ACTIVITY EC50 CPE assay HSV-1-KOS Vero) was 0.52 µg/mL (≈ 1.57 µM), the CC50 at 3 days [13] was 0.7 µg/mL (≈ 2.11 µM) and the EC50 ([14]; read-out: ANTI-HCMV ACTIVITY EC50 HCMV-Davis Plaque assay 8/well) was < 0.0015 µg/mL. For the same compound, the EC50 ([14]; read-out: ANTI-HCMV ACTIVITY EC50 HCMV-Davis Plaque assay 20/well) was < 0.0015 µg/mL and the EC50 ([14]; read-out: ANTI-HCMV ACTIVITY EC50 HCMV-Davis Plaque assay 38/well) was 0.003 µg/mL (≈ 0.00905 µM).
With `Nc1nc(O)c2ncn(COC(CO)CO)c2n1` [GCV, 9-[(1,3-dihyroxy-2-propoxy)methyl]guanine] the “CYTOTOXICITY MTC HEL” value [9] was >100 µg/mL, the “CYTOTOXICITY HEL cells MTC” value ([9]; Table 4 (anti-HCMV study)) was >100 ug/m/ and the “ANTI-HCMV ACTIVITY EC50 HCMV-Davis CPE 100/well (96 well)” value [15] was 0.78 µg/mL. For the same compound, the EC50 [15] was 0.98 µg/mL (≈ 3.84 µM), the “ANTI-HSV ACTIVITY EC50 CPE assay HSV-1Tk- HEL” value ([1]; HEL cells) was 17.4 µg/mL and the EC50 [1, 19] was 12.5 µg/mL (≈ 49 µM). For the same compound, the EC50 [1, 16] was > 100 µg/mL, the EC50 [2, 17] was 1.2 µg/mL (≈ 4.7 µM) and the CC50 at 3 days [11] was 23 µg/mL (≈ 90.1 µM). The “CYTOTOXICITY MTC Vero” value [4] was >100 µg/mL, the EC50 [5, 20] was 0.01 µg/mL (≈ 0.0392 µM) and the EC50 [5, 18] was 2.6 µg/mL (≈ 10.2 µM). For the same compound, the “ANTI-HCMV ACTIVITY EC50 HCMV-Davis Plaque assay 8/well” value ([14]; HEL cells, 8 PFU/well) was 0.86 µg/mL, the EC50 [14, 21] was 0.94 µg/mL (≈ 3.68 µM) and the EC50 [14, 22] was > 100 µg/mL.
In the case of `Nc1ccn(C[C@@H](CO)OCP(=O)(O)O)c(=O)n1` [HPMPC, (S)-1-(3-hydroxy-2-phosphonylmethoxypropyl)cytosine], the “CYTOTOXICITY MTC HEL” value [9] is reported as >100 µg/mL, the “CYTOTOXICITY HEL cells MTC” value ([9]; Table 4 (anti-HCMV study)) is reported as >100 ug/m/ and the EC50 [15] is reported as 0.1 µg/mL (≈ 0.358 µM). The EC50 [1, 19] was 0.012 µg/mL (≈ 0.043 µM), the EC50 [1, 16] was 2.4 µg/mL (≈ 8.6 µM) and the EC50 ([10]; human gammaherpesvirus 4, 336 h, P3HR-1 cells, treated 14 days) was < 25 µg/mL. For the same compound, the EC50 ([2]; Human alphaherpesvirus 2, HEL, HEL cells, read-out: ANTI-HSV ACTIVITY EC50 CPE assay HSV-2-G HEL) was 0.01 µg/mL (≈ 0.0358 µM), the EC50 [2, 17] was 1.3 µg/mL (≈ 4.66 µM) and the CC50 at 3 days [11] was 11 µg/mL (≈ 39.4 µM). The CC50 [12] was > 25 µg/mL, the “CYTOTOXICITY MTC Vero” value [4] was >100 µg/mL and the EC50 [5, 20] was 0.098 µg/mL (≈ 0.351 µM). For the same compound, the EC50 [5, 18] was 6.7 µg/mL (≈ 24 µM), the CC50 at 3 days [13] was 30 µg/mL (≈ 107 µM) and the EC50 [14, 21] was 0.15 µg/mL (≈ 0.537 µM). It also gave an EC50 ([14]; HEL cells, 20 PFU/well, read-out: ANTI-HCMV ACTIVITY EC50 HCMV-Davis Plaque assay 20/well) of 0.14 µg/mL (≈ 0.501 µM) and an EC50 [14, 22] of 1.9 µg/mL (≈ 6.81 µM).
